Measured values published in article PMC7288058, “Modulating the Properties of Fe(III) Macrocyclic MRI Contrast Agents by Appending Sulfonate or Hydroxyl Groups” (Molecules, 2020).
Several values for one entry are separate records, joined by “and”; a condition that tells them apart may be missing. Equal values may be shown once.

Tests used:
[1] = molecular target: T1, human serum albumin (HSA) (Homo sapiens, UniProt P02768); test: Binding to human serum albumin by ultrafiltration / ICP-MS; assay type: in vitro ADME; conditions: 0.4 mM complex, HSA 4.5% (w/v) (0.7 mM), 20 mM HEPES pH 7.4, 100 mM NaCl, 37 °C, 20 min
T1 construct: Albumin from human serum (fatty acid free) was purchased from Sigma-Aldrich; purchased Sigma-Aldrich; host or cells: purified from human serum
Description: Binding of the Fe(III) complexes to human serum albumin (HSA) was studied by using ultrafiltration across a MW 5000 cutoff membrane. The solutions containing HEPES buffer (pH 7.4) and salt NaCl were incubated at 37 °C for 20 min. Solutions contained 0.4 mM Fe(III) complex and 4.5 % (w/v) HSA (0.7 mM). The binding percentages were measured by using ICP-MS to analyze the Fe concentration in the unbound complex solutions after HSA incubation (Table 1). The protein binding for Fe(L3)(OH2) was higher (75%) than for Fe(L1)(OH2) (37%) or Fe(L2) (11%).
The molecular weight of 66,435 Da was used to determine the molar concentrations of HSA. Fe(III) complex (0.400 mM) solutions were incubated with 4.5% (w/v) HSA in 0.100 M NaCl and 20.0 mM HEPES buffer (pH 7.4). All solutions were incubated at 37 °C for 20 min [42]. Aliquots (0.300 mL) were placed in ultra-centrifugal filter units with a 5-kDa membrane and centrifuged at 3500× g for 10 min. The filtrates were used to determine Fe concentration from digested unbound Fe(III) complexes by using ICP-MS.

[2] = Kinetic inertness / dissociation monitored by UV-Vis absorbance; assay type: physicochemical; conditions: 100 mM HCl, 37 °C
Description: The complexes have electronic absorbance bands at 325 nm and 330 nm with extinction coefficients ranging from 1570 M^−1∙cm^−1 to 3800 M^−1∙cm^−1 (Figures S16–S21, Table S2, Supplementary Materials). These absorbance peaks were monitored to study the dissociation of the complexes in 100 mM HCl acid solution, or in solutions containing 25 mM hydrogen carbonate and 0.40 mM hydrogen phosphate at 37 °C. […] In acidic solution (100 mM HCl), the dissociation of Fe(L1)(OH2) was estimated as 18.1% over 24 h and 53.6% over 72 h based on absorbance changes. For comparison, the dissociation of the Fe(L2) complex in acidic solution (100 mM HCl) was 7.9% over 48 h, and the dissociation of Fe(L3)(H2O) was 14% over 24 h and 38% over 72 h.
Absorbance of Fe(III) complexes was measured from 200–800 nm over a period of 48 and 72 h. A Peltier temperature controller was used to keep the temperature at 37 °C. The sample solutions contained 0.200 mM Fe(III) complex. Solutions for kinetic inertness experiments contained 25.0 mM NaHCO3, […] Na2HPO4, and 10.0 mM HEPES buffer (pH 7.4). Acidic solutions for the kinetic inertness experiments contained 0.10 M HCl. For each of these experiments, extinction coefficients were determined by using by using the Beer–Lambert law as given in Table S2 (Supplementary Materials).

[3] = Cyclic voltammetry, Fe(III)/Fe(II) electrode potential; assay type: physicochemical; conditions: for electrode potential (E1/2) vs. Ag/AgCl: 0.10 M potassium chloride
Description: Cyclic voltammetry experiments were carried out in aqueous solutions containing 0.10 M potassium chloride at acidic and neutral pH values with potassium ferricyanide salt in aqueous solution as a reference (Figure S8, Supplementary Materials). […] The electrode potential (E1/2) of Fe(L1)(OH2) at pH 3 was 227 mV vs. Ag/AgCl (515 mV vs. normal hydrogen electrode, NHE) and was −209 mV vs. Ag/AgCl (79 mV vs. NHE) at pH 7. […] At pH 3 the E1/2 was estimated as 264 mV vs. Ag/AgCl (552 mV vs. NHE), and, at pH 7, it was estimated as −618 mV vs. Ag/AgCl (−330 mV vs. NHE). For comparison, the E1/2 of Fe(L3)(OH2) at pH 3 was reported as 112 mV vs. Ag/AgCl (400 mV vs. NHE) and, at pH 7, the value was −588 mV vs. Ag/AgCl (−300 mV vs. NHE).
Cyclic voltammetry measurements were performed in 10.0-mL aqueous solutions containing 0.100 M […] as supporting electrolyte and 1.00 mM Fe(III) complexes. A standard three-electrode cell was used with a polished glassy carbon as the working electrode, a Pt wire as the auxiliary electrode, and an Ag/AgCl (1.00 mM) reference electrode. The samples were purged with extra pure N2 gas to remove the dissolved oxygen for each measurement. Current was measured with a 10-s prescan delay between −1.5 V and 1.5 V at a sweep rate of 100 and 500 mV/s, where 1.00 mM ferrocyanide was used as a standard solution. The redox potential of Fe(II)/(III) was calculated from the anodic (Epa) and cathodic (Epc) potentials, as EFe(II)/(III) = (Epa + Epc)/2 in reference to Ag/AgCl (1.00 mM), then converted to a value referenced to the normal hydrogen electrode (NHE).

Balb/c mice = test: Dynamic T1-weighted MRI in mice after tail vein injection (4.7 T); assay type: in vivo
From the text: The two new Fe(III) complexes, Fe(L1)(OH2) and […], and the Gd(III) agent, Gd(DOTA), were studied in Balb/c mice on a small animal 4.7-T MRI scanner upon tail vein injection of the agent (Figure S24, Supplementary Materials). […] Biodistribution and pharmacokinetic clearance of the complexes in mice were monitored by using dynamic MRI.
In vivo imaging studies with the Fe(III) complexes were studied on at 4.7 T Bruker preclinical MRI in mice (BABC/cJ, Jackson Laboratory) in accordance with approved Institutional Animal Care and Use Committee (IACUC) protocols. The samples with a concentration of 0.050, 0.100, and 0.200 mmol [Fe]/kg. The Fe(III) complex stock solutions were adjusted to pH 7.2 by addition of meglumine and were injected intravenously via tail vein. MR data were recorded continuously for up to 1 h. Distribution studies and clearance kinetics were studied by using MR data acquired over several time points for up to 1 h, and additionally at 4 h and 24 h. For comparison, The Food and Drug Administration (FDA)-approved MRI contrast agent gadopentetate dimeglumine (Gd(DTPA), Magnevist®) and gadoterate meglumine (Gd(DOTA), Dotarem®) were injected at 50.0 μmol [Gd]/kg into separate group of mice and imaged as above.

[4] = Aqueous solubility (observations); assay type: physicochemical; conditions: for aqueous solubility: words

T1 sequence (P02768 25-609): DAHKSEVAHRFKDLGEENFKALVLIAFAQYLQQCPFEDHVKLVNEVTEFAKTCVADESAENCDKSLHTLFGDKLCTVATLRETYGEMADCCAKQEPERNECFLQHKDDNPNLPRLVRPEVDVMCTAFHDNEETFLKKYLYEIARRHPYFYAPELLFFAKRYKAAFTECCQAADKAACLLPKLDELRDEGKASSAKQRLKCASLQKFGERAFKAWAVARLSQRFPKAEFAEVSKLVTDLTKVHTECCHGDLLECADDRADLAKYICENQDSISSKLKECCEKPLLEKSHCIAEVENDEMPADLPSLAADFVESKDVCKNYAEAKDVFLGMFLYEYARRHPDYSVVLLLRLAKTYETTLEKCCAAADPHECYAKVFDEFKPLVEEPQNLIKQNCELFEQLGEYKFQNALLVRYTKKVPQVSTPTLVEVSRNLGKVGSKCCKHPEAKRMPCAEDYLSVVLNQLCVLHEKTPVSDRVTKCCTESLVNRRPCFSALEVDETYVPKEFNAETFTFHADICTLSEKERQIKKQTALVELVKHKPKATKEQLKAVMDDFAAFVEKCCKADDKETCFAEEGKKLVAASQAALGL

| SMILES | HSA Binding (%) [1] | dissociation in acidic solution ([2]; over 48 h) | electrode potential (E1/2) vs. Ag/AgCl ([3]; pH 3, aqueous) | electrode potential (E1/2) vs. NHE ([3]; pH 3, converted from Ag/AgCl) | electrode potential (E1/2) vs. Ag/AgCl ([3]; pH 7, aqueous) | electrode potential (E1/2) vs. NHE ([3]; pH 7, converted from Ag/AgCl) | T1-weighted contrast enhancement compared with other agents (Balb/c mice; healthy mouse, 0.05 mmol/kg, kidneys/blood, up to 45 min) | solubility ([4]; pH 6–7, concentration needed for 17O-NMR) | aqueous solubility [4] | dissociation in acidic solution ([2]; over 24 h, estimated from absorbance changes) | dissociation in acidic solution ([2]; over 72 h, estimated from absorbance changes) | kidney contrast enhancement in T1-weighted images (Balb/c mice; 0.20 mmol/kg, 5 min post-injection) | clearance pathway (Balb/c mice; Balb/c mice, dynamic MRI) | tolerability in mice (Balb/c mice; mouse, in vivo) |
| --- | --- | --- | --- | --- | --- | --- | --- | --- | --- | --- | --- | --- | --- | --- |
| C[C@H]([O-])CN1CCN(C[C@H](C)O)CCN(C[C@H](C)O)CC1.[Fe+3] [Fe(L2)] | 11% and 11.2 ± 2.8% | 7.9% | ~264 mV | ~552 mV | ~−618 mV | ~−330 mV | slightly more enhanced contrast in kidneys and blood than Fe(L1)(OH2) or the Gd(III) complexes | < 10 mM | moderate solubility |  |  |  |  |  |
| C[C@H]([O-])CN1CCN(CCCS(=O)(=O)[O-])CCN(C[C@H](C)O)CC1.O.[Fe+3] [Fe(L1)(OH2)] | 37% and 36.8 ± 0.2% |  | 227 mV | 515 mV | −209 mV | 79 mV |  |  | excellent aqueous solubility | 18.1% | 53.6% | Enhancement of kidney contrast was observed | cleared predominately by the renal system | tolerated well |
